In the NIST ThermoML archive (doi:10.1021/je2010209):

Test: xn = mol fraction of the nth substance listed
Details: 101 kPa, Liquid; for speed of sound: Sing-around technique in a fixed-path interferometer; for mass density: Vibrating tube method

COCCO [2-methoxyethan-1-ol] + CCCCn1cc[n+](C)c1.F[B-](F)(F)F
Details | mass density [kg/m3] | speed of sound [m/s]
288.15 K, x2 = 0 | 969.794 | 1380
288.15 K, x2 = 0.0509 | 1000.6 | 1411
288.15 K, x2 = 0.1092 | 1030.06 | 1438
288.15 K, x2 = 0.2052 | 1068.45 | 1474
288.15 K, x2 = 0.3071 | 1099.91 | 1500
288.15 K, x2 = 0.4025 | 1123.36 | 1521
288.15 K, x2 = 0.5116 | 1145.2 | 1539
288.15 K, x2 = 0.6257 | 1164.11 | 1553
288.15 K, x2 = 0.7153 | 1176.88 | 1565
288.15 K, x2 = 0.8088 | 1188.61 | 1574
288.15 K, x2 = 0.9155 | 1199.86 | 1582
293.15 K, x2 = 0 | 965.063 | 1367
293.15 K, x2 = 0.0509 | 996.158 | 1394
293.15 K, x2 = 0.1092 | 1025.74 | 1422
293.15 K, x2 = 0.2052 | 1064.33 | 1460
293.15 K, x2 = 0.3071 | 1095.87 | 1486
293.15 K, x2 = 0.4025 | 1119.42 | 1508
293.15 K, x2 = 0.5116 | 1141.38 | 1527
293.15 K, x2 = 0.6257 | 1160.35 | 1542
293.15 K, x2 = 0.7153 | 1173.17 | 1554
293.15 K, x2 = 0.8088 | 1184.96 | 1563
293.15 K, x2 = 0.9155 | 1196.25 | 1571
298.15 K, x2 = 0 | 960.447 | 1351
298.15 K, x2 = 0.0509 | 991.715 | 1378
298.15 K, x2 = 0.1092 | 1021.41 | 1406
298.15 K, x2 = 0.2052 | 1060.08 | 1446
298.15 K, x2 = 0.3071 | 1091.76 | 1472
298.15 K, x2 = 0.4025 | 1115.42 | 1494
298.15 K, x2 = 0.5116 | 1137.55 | 1514
298.15 K, x2 = 0.6257 | 1156.59 | 1530
298.15 K, x2 = 0.7153 | 1169.47 | 1542
298.15 K, x2 = 0.8088 | 1181.31 | 1551
298.15 K, x2 = 0.9155 | 1192.64 | 1560
303.15 K, x2 = 0 | 955.825 | 1337
303.15 K, x2 = 0.0509 | 987.145 | 1361
303.15 K, x2 = 0.1092 | 1017.07 | 1391
303.15 K, x2 = 0.2052 | 1056.15 | 1431
303.15 K, x2 = 0.3071 | 1087.96 | 1457
303.15 K, x2 = 0.4025 | 1111.59 | 1480
303.15 K, x2 = 0.5116 | 1133.65 | 1501
303.15 K, x2 = 0.6257 | 1152.84 | 1517
303.15 K, x2 = 0.7153 | 1165.77 | 1530
303.15 K, x2 = 0.8088 | 1177.66 | 1539
303.15 K, x2 = 0.9155 | 1189.04 | 1548
308.15 K, x2 = 0 | 951.214 | 1321
308.15 K, x2 = 0.0509 | 982.765 | 1344
308.15 K, x2 = 0.1092 | 1012.72 | 1375
308.15 K, x2 = 0.2052 | 1051.85 | 1415
308.15 K, x2 = 0.3071 | 1083.79 | 1443
308.15 K, x2 = 0.4025 | 1107.66 | 1467
308.15 K, x2 = 0.5116 | 1129.9 | 1488
308.15 K, x2 = 0.6257 | 1149.1 | 1505
308.15 K, x2 = 0.7153 | 1162.09 | 1517
308.15 K, x2 = 0.8088 | 1174.01 | 1526
308.15 K, x2 = 0.9155 | 1185.43 | 1536
313.15 K, x2 = 0 | 946.562 | 1304
313.15 K, x2 = 0.0509 | 978.381 | 1328
313.15 K, x2 = 0.1092 | 1008.49 | 1359
313.15 K, x2 = 0.2052 | 1047.68 | 1400
313.15 K, x2 = 0.3071 | 1079.71 | 1430
313.15 K, x2 = 0.4025 | 1103.68 | 1453
313.15 K, x2 = 0.5116 | 1126.04 | 1475
313.15 K, x2 = 0.6257 | 1145.37 | 1492
313.15 K, x2 = 0.7153 | 1158.41 | 1505
313.15 K, x2 = 0.8088 | 1170.38 | 1514
313.15 K, x2 = 0.9155 | 1181.84 | 1525
318.15 K, x2 = 0 | 941.864 | 1287
318.15 K, x2 = 0.0509 | 973.683 | 1311
318.15 K, x2 = 0.1092 | 1004.01 | 1343
318.15 K, x2 = 0.2052 | 1043.46 | 1383
318.15 K, x2 = 0.3071 | 1075.71 | 1415
318.15 K, x2 = 0.4025 | 1099.79 | 1440
318.15 K, x2 = 0.5116 | 1122.25 | 1461
318.15 K, x2 = 0.6257 | 1141.63 | 1479
318.15 K, x2 = 0.7153 | 1154.74 | 1492
318.15 K, x2 = 0.8088 | 1166.72 | 1502
318.15 K, x2 = 0.9155 | 1178.23 | 1513

COCCOCCOCCO [2-[2-(2-methoxyethoxy)ethoxy]ethanol] + CCCCn1cc[n+](C)c1.F[B-](F)(F)F
Details | mass density [kg/m3] | speed of sound [m/s]
288.15 K, x2 = 0 | 1050.1 | 1470
288.15 K, x2 = 0.024 | 1056.87 | 1484
288.15 K, x2 = 0.107 | 1076.66 | 1510
288.15 K, x2 = 0.2241 | 1099.67 | 1541
288.15 K, x2 = 0.3275 | 1118.29 | 1555
288.15 K, x2 = 0.4285 | 1135.35 | 1564
288.15 K, x2 = 0.5067 | 1147.58 | 1570
288.15 K, x2 = 0.6282 | 1164.47 | 1575
288.15 K, x2 = 0.7072 | 1174.32 | 1581
288.15 K, x2 = 0.8256 | 1188.11 | 1584
288.15 K, x2 = 0.913 | 1197.84 | 1585
293.15 K, x2 = 0 | 1045.75 | 1452
293.15 K, x2 = 0.024 | 1052.52 | 1466
293.15 K, x2 = 0.107 | 1072.57 | 1492
293.15 K, x2 = 0.2241 | 1095.95 | 1519
293.15 K, x2 = 0.3275 | 1114.5 | 1539
293.15 K, x2 = 0.4285 | 1131.41 | 1550
293.15 K, x2 = 0.5067 | 1143.6 | 1555
293.15 K, x2 = 0.6282 | 1160.74 | 1561
293.15 K, x2 = 0.7072 | 1170.79 | 1568
293.15 K, x2 = 0.8256 | 1184.68 | 1572
293.15 K, x2 = 0.913 | 1194.26 | 1573
298.15 K, x2 = 0 | 1041.32 | 1436
298.15 K, x2 = 0.024 | 1048.15 | 1450
298.15 K, x2 = 0.107 | 1068.36 | 1475
298.15 K, x2 = 0.2241 | 1091.87 | 1503
298.15 K, x2 = 0.3275 | 1110.48 | 1524
298.15 K, x2 = 0.4285 | 1127.42 | 1533
298.15 K, x2 = 0.5067 | 1139.64 | 1541
298.15 K, x2 = 0.6282 | 1156.88 | 1548
298.15 K, x2 = 0.7072 | 1167 | 1555
298.15 K, x2 = 0.8256 | 1181.03 | 1560
298.15 K, x2 = 0.913 | 1190.69 | 1560
303.15 K, x2 = 0 | 1036.84 | 1421
303.15 K, x2 = 0.024 | 1043.76 | 1435
303.15 K, x2 = 0.107 | 1064.17 | 1458
303.15 K, x2 = 0.2241 | 1087.79 | 1488
303.15 K, x2 = 0.3275 | 1106.46 | 1509
303.15 K, x2 = 0.4285 | 1123.48 | 1519
303.15 K, x2 = 0.5067 | 1135.77 | 1528
303.15 K, x2 = 0.6282 | 1153.12 | 1534
303.15 K, x2 = 0.7072 | 1163.33 | 1543
303.15 K, x2 = 0.8256 | 1177.39 | 1548
303.15 K, x2 = 0.913 | 1187 | 1549
308.15 K, x2 = 0 | 1032.27 | 1408
308.15 K, x2 = 0.024 | 1039.37 | 1421
308.15 K, x2 = 0.107 | 1060.13 | 1444
308.15 K, x2 = 0.2241 | 1083.76 | 1475
308.15 K, x2 = 0.3275 | 1102.44 | 1494
308.15 K, x2 = 0.4285 | 1119.54 | 1507
308.15 K, x2 = 0.5067 | 1131.91 | 1516
308.15 K, x2 = 0.6282 | 1149.37 | 1523
308.15 K, x2 = 0.7072 | 1159.63 | 1530
308.15 K, x2 = 0.8256 | 1173.68 | 1536
308.15 K, x2 = 0.913 | 1183.36 | 1538
313.15 K, x2 = 0 | 1027.76 | 1393
313.15 K, x2 = 0.024 | 1034.9 | 1406
313.15 K, x2 = 0.107 | 1055.73 | 1431
313.15 K, x2 = 0.2241 | 1079.59 | 1461
313.15 K, x2 = 0.3275 | 1098.41 | 1483
313.15 K, x2 = 0.4285 | 1115.62 | 1493
313.15 K, x2 = 0.5067 | 1128.04 | 1503
313.15 K, x2 = 0.6282 | 1145.63 | 1511
313.15 K, x2 = 0.7072 | 1155.93 | 1518
313.15 K, x2 = 0.8256 | 1170.13 | 1524
313.15 K, x2 = 0.913 | 1179.9 | 1527
318.15 K, x2 = 0 | 1023.3 | 1376
318.15 K, x2 = 0.024 | 1030.54 | 1390
318.15 K, x2 = 0.107 | 1051.51 | 1415
318.15 K, x2 = 0.2241 | 1075.43 | 1447
318.15 K, x2 = 0.3275 | 1094.37 | 1468
318.15 K, x2 = 0.4285 | 1111.73 | 1480
318.15 K, x2 = 0.5067 | 1124.25 | 1490
318.15 K, x2 = 0.6282 | 1141.8 | 1500
318.15 K, x2 = 0.7072 | 1152 | 1506
318.15 K, x2 = 0.8256 | 1166.14 | 1513
318.15 K, x2 = 0.913 | 1176 | 1516
